Values quoted from earlier work in US8278291B1, “Treatment of wrinkles and strias with 4-hydroxyandrostenedione or a derivative thereof” (Curadis GmbH, priority 1999, dated 2012).

What was measured:
[1] = target: T1, aromatase (Homo sapiens, UniProt P11511); settings: described in the literature
T1 sequence (P11511 1-503): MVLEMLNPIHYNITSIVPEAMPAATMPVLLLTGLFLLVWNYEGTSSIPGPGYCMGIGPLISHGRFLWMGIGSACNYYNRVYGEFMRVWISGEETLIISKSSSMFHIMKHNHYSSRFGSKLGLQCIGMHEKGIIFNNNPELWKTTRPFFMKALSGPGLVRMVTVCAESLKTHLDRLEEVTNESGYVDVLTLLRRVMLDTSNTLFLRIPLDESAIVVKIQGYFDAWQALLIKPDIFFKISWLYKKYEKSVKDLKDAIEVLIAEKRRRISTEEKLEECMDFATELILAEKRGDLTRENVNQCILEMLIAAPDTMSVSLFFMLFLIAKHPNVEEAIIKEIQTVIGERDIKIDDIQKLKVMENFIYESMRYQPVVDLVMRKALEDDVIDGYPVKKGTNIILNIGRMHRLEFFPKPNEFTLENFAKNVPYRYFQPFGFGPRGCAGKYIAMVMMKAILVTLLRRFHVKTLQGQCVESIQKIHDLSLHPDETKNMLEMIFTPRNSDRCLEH

[2] = tested on: 5-alpha-reductase; settings: described in the literature, higher concentrations
[3] = tested on: sebaceous gland; settings: topical, male fuzzy rat, Ye 1997
[4] = applied to the head of monkeys over 27 weeks, versus untreated individuals, Rittmaster 1987

In the case of `C[C@]12CCC(=O)C(O)=C1CC[C@@H]1[C@@H]2CC[C@]2(C)C(=O)CC[C@@H]12` [4-hydroxyandrostendione, 4-hydroxyandrost-4-ene-3,17-dione], the “critical concentration for aromatase” value [1] is given as “about 3 nano mole/L” and the “concentration that can also inhibit 5-alpha-reductase” value [2] is given as 3 micro mole/L.
For `CC(C)(C)NC(=O)[C@H]1CC[C@H]2[C@@H]3CC[C@H]4NC(=O)C=C[C@]4(C)[C@H]3CC[C@]12C` [Finasterid, N-tert-butyl-3-oxo-4-aza-5α-androst-1-ene-17-β-carboxamide], the “effect in the sebaceous gland model compared with MK 386” value [3] is listed as “little more effective than MK 386” and the “effect in the sebaceous gland model compared with RU58841” value [3] is listed as “much lower effects”.
In the case of `CC(C)CCC[C@@H](C)[C@H]1CC[C@H]2[C@@H]3[C@@H](C)C[C@H]4N(C)C(=O)CC[C@]4(C)[C@H]3CC[C@]12C` [MK 386, 4,7-beta-dimethyl-4-azacholestane-3-one], the “effect in the sebaceous gland model compared with RU58841” value [3] is given as “much lower effects”.
For `CCN(CC)C(=O)[C@H]1CC[C@H]2[C@@H]3CC[C@H]4N(C)C(=O)CC[C@]4(C)[C@H]3CC[C@]12C` [Example 4-MA, 17-beta-N,N-diethylcarbamoyl-4-methyl-4-aza-5-alpha-androstan-3-one], the signs of boldness [4] is given as “did not have any signs of a boldness”.
